Experimental data as given in article PMC12595434, “Development of retinoid nuclear receptor pathway antagonists through targeting aldehyde dehydrogenase 1A3” (iScience, 2025).

How the values were obtained:
GR = GR (Homo sapiens, UniProt P04150); assay: Off-target profiling panel; format: binding; settings: read-out: Inhibition by MBE1 at 10 μM (%)
5HT2A = 5HT2A (Homo sapiens, UniProt P28223); assay: Off-target profiling panel; format: binding; settings: read-out: Inhibition by MBE1 at 10 μM (%)
5HT2A, sequence (P28223 whole entry): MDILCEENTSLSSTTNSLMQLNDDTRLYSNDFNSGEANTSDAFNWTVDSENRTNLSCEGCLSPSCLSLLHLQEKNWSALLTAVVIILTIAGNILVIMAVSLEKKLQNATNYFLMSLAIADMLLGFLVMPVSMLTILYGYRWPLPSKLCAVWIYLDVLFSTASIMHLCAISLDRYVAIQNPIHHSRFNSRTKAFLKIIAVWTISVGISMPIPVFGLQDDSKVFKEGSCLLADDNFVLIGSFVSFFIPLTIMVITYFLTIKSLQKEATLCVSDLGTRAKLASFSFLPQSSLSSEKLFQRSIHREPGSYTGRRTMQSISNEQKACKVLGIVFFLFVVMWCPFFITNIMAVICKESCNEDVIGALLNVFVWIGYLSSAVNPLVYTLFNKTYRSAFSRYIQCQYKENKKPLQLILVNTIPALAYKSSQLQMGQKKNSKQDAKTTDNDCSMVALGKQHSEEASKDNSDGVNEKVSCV

5HT2B = 5HT2B (Homo sapiens, UniProt P41595); assay: Off-target profiling panel; format: binding; settings: read-out: Inhibition by MBE1 at 10 μM (%)
5HT2B, sequence (P41595 whole entry): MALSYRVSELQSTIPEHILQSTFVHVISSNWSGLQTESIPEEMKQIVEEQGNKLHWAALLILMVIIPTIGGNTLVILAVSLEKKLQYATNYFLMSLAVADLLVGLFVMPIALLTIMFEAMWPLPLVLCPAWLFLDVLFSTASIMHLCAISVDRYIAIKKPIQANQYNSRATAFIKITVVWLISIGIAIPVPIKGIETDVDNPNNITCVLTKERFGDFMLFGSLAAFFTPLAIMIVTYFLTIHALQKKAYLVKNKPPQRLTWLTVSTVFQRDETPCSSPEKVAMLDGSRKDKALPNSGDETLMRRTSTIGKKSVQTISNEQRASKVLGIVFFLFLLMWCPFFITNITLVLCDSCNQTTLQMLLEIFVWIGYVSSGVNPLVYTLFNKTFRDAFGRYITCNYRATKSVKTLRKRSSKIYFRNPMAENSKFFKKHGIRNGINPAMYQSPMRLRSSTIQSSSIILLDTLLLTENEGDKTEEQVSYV

M1 = M1 (Homo sapiens, UniProt P11229); assay: biochemical; format: binding; settings: read-out: Inhibition by MBE1 at 10 μM (%)
M1, sequence (P11229 whole entry): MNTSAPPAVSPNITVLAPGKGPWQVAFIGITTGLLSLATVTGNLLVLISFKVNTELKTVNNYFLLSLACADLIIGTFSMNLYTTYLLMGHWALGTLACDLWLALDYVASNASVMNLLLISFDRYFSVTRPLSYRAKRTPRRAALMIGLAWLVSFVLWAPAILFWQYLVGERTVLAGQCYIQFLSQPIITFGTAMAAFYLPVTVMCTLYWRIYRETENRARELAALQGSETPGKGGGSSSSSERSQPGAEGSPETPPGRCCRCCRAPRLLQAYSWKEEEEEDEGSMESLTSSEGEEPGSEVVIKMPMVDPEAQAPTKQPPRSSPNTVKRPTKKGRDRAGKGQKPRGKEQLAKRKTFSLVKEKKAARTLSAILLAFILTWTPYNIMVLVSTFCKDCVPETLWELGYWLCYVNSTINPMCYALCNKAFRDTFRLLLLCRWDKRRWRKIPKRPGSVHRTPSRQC

C19orf66 = target: T1, C19orf66 (Homo sapiens, UniProt Q9NUL5); assay: Thermal proteome profiling (TPP) in A375 cells; format: cell-based; settings: C19orf66, 1 uM
T1 construct: Treated A375 cells were harvested from 10 × 15 cm plates; endogenous in cells; host or cells: A375 melanoma cells
T1 sequence (Q9NUL5 whole entry): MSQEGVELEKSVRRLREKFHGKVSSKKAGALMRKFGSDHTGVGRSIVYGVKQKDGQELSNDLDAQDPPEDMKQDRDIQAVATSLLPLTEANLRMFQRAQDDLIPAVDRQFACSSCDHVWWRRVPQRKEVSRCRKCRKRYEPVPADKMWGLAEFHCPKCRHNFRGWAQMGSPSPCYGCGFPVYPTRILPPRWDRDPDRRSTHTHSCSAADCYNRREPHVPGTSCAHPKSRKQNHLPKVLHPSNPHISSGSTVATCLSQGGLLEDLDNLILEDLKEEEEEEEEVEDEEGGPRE

[1] = 7-day repeat-dose study, oral gavage; format: in vivo, mouse; settings: 50 mg/kg twice daily oral gavage
Method: In order to accommodate in vivo dosing and to also determine any potential toxic effects of MBE1.5, we performed a 7-day repeat-dose study administering a suspension of MBE1.5 at 50 mg/kg twice daily via oral gavage.
(§1) Finally, to establish a pharmacokinetic profile throughout dosing, MBE1.5 was analyzed in serum 12 h post dose on day 1 and day 7. […] To accommodate consistent plasma concentrations without accumulation, MBE1.5 was formulated to a lower concentration in mouse diet that would administer a dose equivalent to 25 mg/kg daily. This formulated diet was provided to mice for 5 days, at which point serum was analyzed for MBE1.5 concentration at 6:30 a.m. and 4:00 p.m. on day 5 to capture differences in mouse feeding cycles.
Figure S5. Specificity, tolerability and pharmacokinetic analysis of MBE1.5 in […]
MCF7 or SUM159 cells and a dose titration of MBE1.5 was performed against each cell line in the Aldelfuor assay to confirm ALDH1A3 isoform specificity for MBE1.5. n= 3 […]
(§2) proteome profiling in A375 cells was performed in DMSO and at two concentrations of MBE1 using a 10 temperature melting curve for isolation, followed by proteomic analysis, filtering and mapping peptide frequency as a composite melting curve, n=3 biological replicates per condition-temperature. […] ALDH1A3 or NPTN were assessed by WB to confirm the stabilization of ALDH1A3 but not NPTN (55kD, as indicated by arrow) by MBE1. […]
analysis of MBE1.5 following identification of proper formulations and administration to fasted male CD1 mice at 1 mg/kg intravenous (IV) and 10 mg/kg oral gavage (PO). n = 3 mice per arm. G-I, MBE1.5 administered as a suspension to C57BL/6 male mice via bi-daily PO administration for seven days as compared to the vehicle was tracked for body weight (G), complete blood count at day 7 (H) and plasma concentrations of MBE1.5 were analyzed at 12 hours post Day 1 dosing and 12 hours following the last dose (I). n = 4 male mice per arm. […] Upon acclimation, serum MBE1.5 concentrations were calculated following blood draws at 6:30 am and 4 pm. n = 5 mice per arm. […]

[2] = tested on: panel of cancer cell lines; assay: 48 h proliferation, WST-8 tetrazolium dye assay; format: cell-based, human; settings: 48-h proliferation assays, 23 cell lines
[3] = Serum concentration on MBE1.5-formulated diet; format: in vivo, mouse
Method: as §1
No statistical method was used to predetermine the number of animals needed across experiments. […]
as §2
analysis of MBE1.5 following identification of proper formulations and administration to fasted male CD1 mice at 1 mg/kg intravenous (IV) and 10 mg/kg oral gavage (PO). n = 3 mice per arm. […] Upon acclimation, serum MBE1.5 concentrations were calculated following blood draws at 6:30 am and 4 pm. n = 5 mice per arm. […]

[4] = tested on: panel of 23 human cancer cell lines; assay: Aldefluor assay, panel of 23 human cancer cell lines; format: cell-based; settings: 100 nM; most solid cancer types except liver cancer
Method: To determine the breadth of ALDH1A3 activity across human cancers and assess the target engagement of these discovered compounds across tumor models, we profiled a panel of 23 human cancer cell lines with the Aldefluor assay. […] Next, we assessed whether ALDH1A3 affects cell growth across this broad panel of cancer types by testing proliferation for each cell line with and without MBE1.5.
In addition, cells were suspended at a concentration of 100,000 cells per mL. Finally, DMSO was added to at 1% final in all cells to improve kinetics of the assay. For compound titrations, concentrated compound stock was added first to tubes and a uniform Aldefluor buffer containing the cell suspension was added to dilute to final volumes. Cells were analyzed by a BD LSRII for flow cytometry and were sorted using a FACSAria Fusion cell sorter (BD Biosciences) equipped with a 70 micron nozzle. Sample and sort collection tubes were kept at 4°C. […] DAPI was used as a live-dead indicator.

GR, sequence (P04150 whole entry): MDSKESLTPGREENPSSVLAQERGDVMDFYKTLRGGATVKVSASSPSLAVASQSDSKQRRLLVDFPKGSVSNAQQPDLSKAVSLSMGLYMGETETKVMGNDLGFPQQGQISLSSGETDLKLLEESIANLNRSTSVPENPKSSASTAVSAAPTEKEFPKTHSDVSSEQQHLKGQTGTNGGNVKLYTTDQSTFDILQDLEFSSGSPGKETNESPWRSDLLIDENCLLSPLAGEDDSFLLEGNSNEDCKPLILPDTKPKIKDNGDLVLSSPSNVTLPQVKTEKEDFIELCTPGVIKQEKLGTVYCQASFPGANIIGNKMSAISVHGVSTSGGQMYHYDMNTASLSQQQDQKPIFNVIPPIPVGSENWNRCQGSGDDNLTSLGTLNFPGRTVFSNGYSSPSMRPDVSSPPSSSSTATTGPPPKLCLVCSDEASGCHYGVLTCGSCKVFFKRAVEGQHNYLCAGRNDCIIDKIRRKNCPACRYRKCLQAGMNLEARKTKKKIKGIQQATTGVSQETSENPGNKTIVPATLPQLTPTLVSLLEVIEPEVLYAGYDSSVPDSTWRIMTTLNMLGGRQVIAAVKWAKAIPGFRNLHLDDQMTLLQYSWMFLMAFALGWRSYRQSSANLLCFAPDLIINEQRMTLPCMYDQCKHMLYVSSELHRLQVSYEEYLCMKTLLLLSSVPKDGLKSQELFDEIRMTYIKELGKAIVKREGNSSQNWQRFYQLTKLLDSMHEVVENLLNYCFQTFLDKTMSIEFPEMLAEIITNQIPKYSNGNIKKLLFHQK

serum level 12 h post dose, day 1 vs day 7 (in words) [1]	blood profile (complete blood count) vs vehicle (in words) ([1]; day 7)	concentration at 5 day ([3]; C57BL/6, mouse, serum, oral, 25 mg/kg daily, day 5, read-out: nadir serum concentration) [nM]	nadir serum concentration as multiple of IC50 in the retinoid assay ([3]; day 5)	SMILES	inhibition at 10 µM (GR) [%]	inhibition at 10 µM (5HT2A) [%]	inhibition at 10 µM (5HT2B) [%]	inhibition at 10 µM (M1) [%]	1uM MBE1 Tm (C19orf66)	body weight vs vehicle (in words) ([1]; 7 days, C57BL/6 male mice)	effect on growth or survival (in words) [2]	inhibition of Aldefluor activity across cancer cell line panel (in words) [4]
–	–	–	–	CCc1cnccc1C(=O)Nc1cc2c(cc1F)NC(=O)CC2 [MBE1, 3-ethyl-N-(7-fluoro-2-oxo-3,4-dihydro-1H-quinolin-6-yl)pyridine-4-carboxamide]	-13.5	-16.1	-6.81	-7.68	53.8379	–	–	–
accumulated	no detectable difference	~270	more than 100 fold	CCc1ccccc1C(=O)Nc1cc2c(cc1F)NC(=O)CC2 [MBE1.5, 2-ethyl-N-(7-fluoro-2-oxo-3,4-dihydro-1H-quinolin-6-yl)benzamide]	–	–	–	–	–	no difference	no detectable effect	potently inhibited Aldefluor activity
